Data taken from patent US10329300B2, “Pyrazolo[3,4-d]pyrimidine compound or salt thereof” (TAIHO PHARMACEUTICAL CO., LTD., priority 2015, dated 2019).
Where two headings read alike, the source gives them in different places.

Columns and labels:
Type in all cases: cell-based
[1] = test system: HER2-overexpressing human stomach cancer cell line NCI-N87 cells; assay: Cytostatic activity against HER2-expressing cell line NCI-N87 (CellTiter-Glo)
Excerpt: HER2-overexpressing human stomach cancer cell line NCI-N87 cells were suspended in RPMI1640 medium (manufactured by Life Technologies Corp.) containing 10% fetal bovine serum. Meanwhile, EGFR-overexpressing highly activated human epithelioid cancer cell line A431 cells were suspended in DMEM, high glucose medium (manufactured by Life Technologies Corp.) containing 10% fetal bovine serum. Subsequently, each cell suspension was inoculated to each well of a 384-well flat-bottom microplate and cultured at 37° C. for 1 day in an incubator containing 5% carbon dioxide. […] The solution of the test compound in DMSO was diluted with the medium used in the suspension of each cell line, and this solution was added at a final concentration of DMSO of 0.2% to each well of the cell culture plate, followed by further culture at 37° C. for 3 days in an incubator containing 5% carbon dioxide.

[2] = test system: HER2-overexpressing human breast cancer cell line SK-BR-3 cells; assay: Cytostatic activity against HER2-expressing cell line SK-BR-3 (CellTiter-Glo); settings: 3-day culture, read-out: SK-BR-3 cell growth inhibitory activity IC50 value
Protocol: HER2-overexpressing human breast cancer cell line SK-BR-3 cells were suspended in McCoy's 5a medium (manufactured by Life Technologies Corp.) containing 10% fetal bovine serum. The cell suspension was inoculated to each well of a 384-well flat-bottom microplate and cultured at 37° C. for 1 day in an incubator containing 5% carbon dioxide. The compound of the present invention was dissolved in DMSO, and the test compound was diluted into 500 times as high concentration as the final concentration using DMSO. The solution of the test compound in DMSO was diluted with the medium used in the suspension of each cell line, and this solution was added at a final concentration of DMSO of 0.2% to each well of the cell culture plate, followed by further culture at 37° C. for 3 days in an incubator containing 5% carbon dioxide.

[3] = test system: EGFR-overexpressing highly activated human epithelioid cancer cell line A431 cells; assay: Cytostatic activity against EGFR-expressing cell line A431 (CellTiter-Glo); settings: 3-day culture, read-out: A431 cell growth inhibitory activity IC50 value
Excerpt: Test Example 2 Measurement Test (In Vitro) of Cytostatic Activity Against HER2-Expressing Cell Line (NCI-N87) and EGFR-Expressing Cell Line (A431) and Comparison of Selectivity Thereof
HER2-overexpressing human stomach cancer cell line NCI-N87 cells were suspended in RPMI1640 medium (manufactured by Life Technologies Corp.) containing 10% fetal bovine serum. Meanwhile, EGFR-overexpressing highly activated human epithelioid cancer cell line A431 cells were suspended in DMEM, high glucose medium (manufactured by Life Technologies Corp.) containing 10% fetal bovine serum. Subsequently, each cell suspension was inoculated to each well of a 384-well flat-bottom microplate and cultured at 37° C. for 1 day in an incubator containing 5% carbon dioxide. The compound of the present invention or Comparative Example compound 1 was dissolved in DMSO, and the test compound was diluted into a concentration of 500 times the final concentration using DMSO. The solution of the test compound in DMSO was diluted with the medium used in the suspension of each cell line, and this solution was added at a final concentration of DMSO of 0.2% to each well of the cell culture plate, followed by further culture at 37° C. for 3 days in an incubator containing 5% carbon dioxide.
Rate of growth inhibition (%)=(C−T)/(C)×100 T: Luminescence intensity of a well supplemented with the test compound C: Luminescence intensity of a well not supplemented with the test compound

[4] = Homo sapiens, 72 h, 3-day culture, NCI-N87, read-out: NCI-N87 cell growth inhibitory activity IC50 value

Compound | IC50 [1, 4] | IC50 ([3]; Homo sapiens, A-431, 72 h) | other results
C=CC(=O)N1CCC[C@@H](n2nc(C(=O)Nc3nc4cc(F)ccc4o3)c3c(N)ncnc32)C1 [Comparative Example compound 1, (R)-1-(1-acryloylpiperidin-3-yl)-4-amino-N-(5-fluorobenzo[d]oxazol-2-yl)-1H-pyrazolo[3,4-d]pyrimidine-3-carboxamide, reference compound] | 2380 nM |  | cytostatic effect in evaluation using HER2-overexpressing cell lines ([1]; HER2-overexpressing cell lines, qualitative): very low cytostatic effect; IC50 ([2]; Homo sapiens, 72 h): 1.13 µM
C=CC(=O)N1CCC[C@@H](n2nc(C(=O)Nc3ccc(CC(=O)N(C)C)c(Cl)c3)c3c(N)ncnc32)C1 [Example 8, (R)-1-(1-acryloylpiperidin-3-yl)-4-amino-N-(3-chloro-4-(2-(dimethylamino)-2-oxoethyl)phenyl)-1H-pyrazolo[3,4-d]pyrimidine-3-carboxamide] |  | 0.956 µM | 
C=CC(=O)N1CCC[C@@H](n2nc(C(=O)Nc3ccc(OC(=O)N(C)C)cc3OC)c3c(N)ncnc32)C1 [Example 36, (R)-4-(1-(1-acryloylpiperidin-3-yl)-4-amino-1H-pyrazolo[3,4-d]pyrimidine-3-carboxamido)-3-methoxyphenyl dimethylcarbamate] |  | 2.61 µM | IC50 ([1]; Homo sapiens, NCI-N87, 72 h, read-out: NCI-N87 cell growth inhibitory activity IC50 value (nM)): 8 nM
C=CC(=O)N1CCC[C@@H](n2nc(C(=O)Nc3cc(C)c(CC(=O)N(C)C)cc3C)c3c(N)ncnc32)C1 [Example 39, (R)-1-(1-acryloylpiperidin-3-yl)-4-amino-N-(4-(2-(dimethylamino)-2-oxoethyl)-2,5-dimethylphenyl)-1H-pyrazolo[3,4-d]pyrimidine-3-carboxamide] | 12 nM | 1.8 µM | IC50 ([2]; Homo sapiens, 72 h): 0.024 µM
(R)-1-(1-acryloylpiperidin-3-yl)-4-amino-N-(4-(2-methoxy(methyl)amino-2-oxoethyl)-2-methylphenyl)-1H-pyrazolo[3,4-d]pyrimidine-3-carboxamide [Example 72] |  |  | IC50 ([1]; 3-day culture, NCI-N87, read-out: NCI-N87 cell growth inhibitory activity IC50 value): 5 nM; IC50 [3]: 1.17 µM; IC50 [2]: 0.016 µM
(R,E)-4-(4-amino-1-(1-(4-dimethylamino)but-2-enoyl)piperidin-3-yl)-1H-pyrazolo[3,4-d]pyrimidine-3-carboxamido)naphthalen-1-yl dimethyl carbamate [Example 66] |  |  | IC50 [3]: 6.04 µM

More lines, main results first:

IC50 [1, 4] | IC50 ([3]; Homo sapiens, A-431, 72 h) | Compound | other results
11 nM | 1.67 µM | C=CC(=O)N1CCC[C@@H](n2nc(C(=O)Nc3ccc(CC(=O)N(C)C)c4c3OCO4)c3c(N)ncnc32)C1 [Example 53, (R)-1-(1-acryloylpiperidin-3-yl)-4-amino-N-(7-(2-(dimethylamino)-2-oxoethyl)benzo[d][1,3]dioxol-4-yl)-1H-pyrazolo[3,4-d]pyrimidine-3-carboxamide] | 
 | 2.51 µM | C=CC(=O)N1CC[C@@H](n2nc(C(=O)Nc3ccc(CC(=O)N(C)C)c(F)c3C)c3c(N)ncnc32)C1 [Example 56, (R)-1-(1-acryloylpyrrolidin-3-yl)-4-amino-N-(4-(2-(dimethylamino)-2-oxoethyl)-3-fluoro-2-methylphenyl)-1H-pyrazolo[3,4-d]pyrimidine-3-carboxamide] | 
